From ChEMBL document CHEMBL3862042 (J Med Chem, 2017)

What was measured:
[1] = biological target: T1, Phosphatidylinositol 4-kinase type 2-alpha (Homo sapiens, UniProt Q9BTU6); assay: Inhibition of PI4K2A (unknown origin) assessed as remaining enzyme activity by ADP-Glo kinase assay relative to untreated control; set-up: concentration or dose not given beside the values
[2] = Cytotoxicity against human HeLa cells incubated for 3 days by MTT assay; type: toxicity, cell-based
[3] = system: Human rhinovirus 1A; assay: microbe, parasite or virus in culture; conditions: HeLa, 72 h
[4] = system: Coxsackievirus B3; assay: microbe, parasite or virus in culture; conditions: Enterovirus B, Nancy, HeLa, 4 h
[5] = system: Hepatitis C virus; assay: microbe, parasite or virus in culture; conditions: genotype 1b, Huh-7, 72 h
[6] = system: Hepatitis C virus; assay: microbe, parasite or virus in culture; conditions: subtype 2a JFH1, Huh-7, 72 h
[7] = biological target: T2, Phosphatidylinositol 4-kinase beta (Homo sapiens, UniProt Q9UBF8); assay: Inhibition of PI4KB (unknown origin) by ADP-Glo kinase assay
[8] = biological target: Phosphatidylinositol 4-kinase alpha (Homo sapiens, UniProt P42356); assay: Inhibition of PI4KA (unknown origin) by ADP-Glo kinase assay
Chain of Phosphatidylinositol 4-kinase alpha (P42356 whole entry): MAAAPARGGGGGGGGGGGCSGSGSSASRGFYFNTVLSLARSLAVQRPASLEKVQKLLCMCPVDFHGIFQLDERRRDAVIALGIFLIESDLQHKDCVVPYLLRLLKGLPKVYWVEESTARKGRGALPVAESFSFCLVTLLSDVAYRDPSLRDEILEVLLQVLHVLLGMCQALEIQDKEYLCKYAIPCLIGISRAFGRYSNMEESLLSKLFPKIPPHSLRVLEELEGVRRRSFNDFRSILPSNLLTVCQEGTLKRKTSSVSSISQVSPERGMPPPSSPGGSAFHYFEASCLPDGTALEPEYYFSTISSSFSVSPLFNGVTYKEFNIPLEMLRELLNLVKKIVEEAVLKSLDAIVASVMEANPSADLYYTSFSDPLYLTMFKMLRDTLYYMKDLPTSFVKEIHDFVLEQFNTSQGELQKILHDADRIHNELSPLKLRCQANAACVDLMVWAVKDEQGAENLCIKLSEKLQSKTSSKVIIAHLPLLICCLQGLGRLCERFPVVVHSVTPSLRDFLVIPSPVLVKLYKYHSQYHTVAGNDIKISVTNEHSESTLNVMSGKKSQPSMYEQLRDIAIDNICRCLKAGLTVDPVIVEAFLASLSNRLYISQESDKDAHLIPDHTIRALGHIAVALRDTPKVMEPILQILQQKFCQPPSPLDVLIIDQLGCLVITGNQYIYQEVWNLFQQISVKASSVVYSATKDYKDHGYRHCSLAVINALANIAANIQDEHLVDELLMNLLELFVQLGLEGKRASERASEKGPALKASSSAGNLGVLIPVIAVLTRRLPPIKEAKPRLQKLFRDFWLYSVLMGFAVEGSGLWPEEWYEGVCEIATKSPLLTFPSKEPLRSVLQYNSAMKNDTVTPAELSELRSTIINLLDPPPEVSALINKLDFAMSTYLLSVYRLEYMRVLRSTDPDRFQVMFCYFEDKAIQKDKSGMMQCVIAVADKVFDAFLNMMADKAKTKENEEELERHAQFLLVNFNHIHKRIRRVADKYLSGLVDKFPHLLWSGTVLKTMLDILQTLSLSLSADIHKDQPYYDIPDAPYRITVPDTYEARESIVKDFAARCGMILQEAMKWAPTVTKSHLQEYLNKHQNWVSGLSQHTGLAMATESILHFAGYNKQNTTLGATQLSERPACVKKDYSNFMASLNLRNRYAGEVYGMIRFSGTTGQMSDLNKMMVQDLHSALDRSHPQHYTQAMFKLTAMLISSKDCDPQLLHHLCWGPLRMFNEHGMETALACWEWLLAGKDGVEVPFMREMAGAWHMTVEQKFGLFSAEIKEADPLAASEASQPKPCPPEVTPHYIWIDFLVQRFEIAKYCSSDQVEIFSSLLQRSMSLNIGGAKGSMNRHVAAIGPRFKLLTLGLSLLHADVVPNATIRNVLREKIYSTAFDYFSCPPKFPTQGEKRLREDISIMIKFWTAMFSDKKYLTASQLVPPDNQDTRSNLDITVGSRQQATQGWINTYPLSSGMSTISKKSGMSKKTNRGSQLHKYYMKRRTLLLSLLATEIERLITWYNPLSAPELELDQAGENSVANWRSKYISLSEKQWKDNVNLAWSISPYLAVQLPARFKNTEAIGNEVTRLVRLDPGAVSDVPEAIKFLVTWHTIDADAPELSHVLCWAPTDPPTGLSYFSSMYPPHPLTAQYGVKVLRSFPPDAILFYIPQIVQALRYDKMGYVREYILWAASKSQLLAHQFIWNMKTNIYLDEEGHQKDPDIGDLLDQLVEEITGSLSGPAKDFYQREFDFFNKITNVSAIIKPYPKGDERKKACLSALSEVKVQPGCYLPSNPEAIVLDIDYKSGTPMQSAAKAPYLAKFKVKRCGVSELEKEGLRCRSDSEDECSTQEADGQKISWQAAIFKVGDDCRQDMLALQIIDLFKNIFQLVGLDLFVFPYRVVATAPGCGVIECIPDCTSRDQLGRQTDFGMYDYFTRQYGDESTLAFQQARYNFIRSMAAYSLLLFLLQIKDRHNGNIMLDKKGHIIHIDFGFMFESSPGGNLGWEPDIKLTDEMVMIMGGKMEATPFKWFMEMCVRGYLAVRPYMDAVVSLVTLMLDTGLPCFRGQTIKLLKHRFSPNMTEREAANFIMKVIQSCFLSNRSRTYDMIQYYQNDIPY

[9] = biological target: T1, Phosphatidylinositol 4-kinase type 2-alpha; assay: Inhibition of PI4K2A (unknown origin) by ADP-Glo kinase assay
[10] = biological target: T2, Phosphatidylinositol 4-kinase beta; assay: Inhibition of PI4KB (unknown origin) at 1 uM by ADP-Glo kinase assay
Target sequence in this assay (Q9UBF8 2-816 limits assumed): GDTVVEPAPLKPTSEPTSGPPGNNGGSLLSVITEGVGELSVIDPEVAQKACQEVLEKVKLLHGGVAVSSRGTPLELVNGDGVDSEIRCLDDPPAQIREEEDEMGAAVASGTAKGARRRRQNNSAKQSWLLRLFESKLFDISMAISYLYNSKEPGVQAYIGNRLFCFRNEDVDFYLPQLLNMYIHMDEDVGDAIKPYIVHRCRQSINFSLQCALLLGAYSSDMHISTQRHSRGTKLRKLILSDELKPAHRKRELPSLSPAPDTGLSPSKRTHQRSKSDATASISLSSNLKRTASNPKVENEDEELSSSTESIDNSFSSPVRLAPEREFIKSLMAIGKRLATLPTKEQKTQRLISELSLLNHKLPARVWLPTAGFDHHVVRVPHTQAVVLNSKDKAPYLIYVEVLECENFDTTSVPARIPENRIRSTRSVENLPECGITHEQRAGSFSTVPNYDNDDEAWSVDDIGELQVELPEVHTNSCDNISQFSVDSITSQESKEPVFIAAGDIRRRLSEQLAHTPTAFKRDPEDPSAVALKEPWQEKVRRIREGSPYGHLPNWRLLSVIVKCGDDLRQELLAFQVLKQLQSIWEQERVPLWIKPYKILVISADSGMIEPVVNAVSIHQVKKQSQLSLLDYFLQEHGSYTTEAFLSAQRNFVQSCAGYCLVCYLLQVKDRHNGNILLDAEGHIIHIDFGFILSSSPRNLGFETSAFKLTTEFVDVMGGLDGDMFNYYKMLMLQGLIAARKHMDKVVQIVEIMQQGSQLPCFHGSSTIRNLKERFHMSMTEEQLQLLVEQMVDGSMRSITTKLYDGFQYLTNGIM

[11] = biological target: Phosphatidylinositol 4,5-bisphosphate 3-kinase catalytic subunit alpha isoform (Homo sapiens, UniProt P42336); assay: Inhibition of PI3Kalpha (unknown origin) by ADP-Glo kinase assay
[12] = biological target: Phosphatidylinositol 4,5-bisphosphate 3-kinase catalytic subunit beta isoform (Homo sapiens, UniProt P42338); assay: Inhibition of PI3Kbeta (unknown origin) by ADP-Glo kinase assay
Chain of Phosphatidylinositol 4,5-bisphosphate 3-kinase catalytic subunit beta isoform (P42338 whole entry, canonical isoform): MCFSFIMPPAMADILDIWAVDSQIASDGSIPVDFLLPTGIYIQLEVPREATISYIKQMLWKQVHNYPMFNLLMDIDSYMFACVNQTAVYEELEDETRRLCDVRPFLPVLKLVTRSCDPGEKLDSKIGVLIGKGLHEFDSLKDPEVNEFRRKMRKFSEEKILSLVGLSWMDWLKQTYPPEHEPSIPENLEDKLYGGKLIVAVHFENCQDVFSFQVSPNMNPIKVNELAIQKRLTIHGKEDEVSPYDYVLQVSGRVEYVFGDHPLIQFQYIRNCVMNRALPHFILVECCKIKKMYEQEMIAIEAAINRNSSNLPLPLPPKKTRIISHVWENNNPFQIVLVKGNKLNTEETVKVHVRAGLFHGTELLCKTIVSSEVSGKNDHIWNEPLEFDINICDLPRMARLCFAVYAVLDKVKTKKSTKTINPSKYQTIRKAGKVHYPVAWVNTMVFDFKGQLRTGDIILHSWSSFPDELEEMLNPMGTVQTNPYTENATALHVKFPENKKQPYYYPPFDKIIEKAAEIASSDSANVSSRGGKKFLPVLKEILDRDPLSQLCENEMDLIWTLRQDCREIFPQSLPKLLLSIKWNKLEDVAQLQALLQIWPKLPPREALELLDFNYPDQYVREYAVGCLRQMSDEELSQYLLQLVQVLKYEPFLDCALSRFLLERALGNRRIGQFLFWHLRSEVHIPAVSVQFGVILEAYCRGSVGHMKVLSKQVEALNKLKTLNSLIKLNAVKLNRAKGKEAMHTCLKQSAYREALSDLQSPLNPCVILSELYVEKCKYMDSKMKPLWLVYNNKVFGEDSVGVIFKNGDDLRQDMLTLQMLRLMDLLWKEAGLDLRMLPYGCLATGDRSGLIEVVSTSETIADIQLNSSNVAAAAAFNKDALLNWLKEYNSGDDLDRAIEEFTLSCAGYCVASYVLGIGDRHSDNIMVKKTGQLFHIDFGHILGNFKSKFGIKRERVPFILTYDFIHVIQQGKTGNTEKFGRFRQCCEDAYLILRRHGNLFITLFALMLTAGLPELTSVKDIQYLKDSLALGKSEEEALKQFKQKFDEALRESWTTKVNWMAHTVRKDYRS

[13] = biological target: T3, Phosphatidylinositol 4,5-bisphosphate 3-kinase catalytic subunit delta isoform (Homo sapiens, UniProt O00329); assay: Inhibition of PI3Kdelta (unknown origin) by ADP-Glo kinase assay
T3 sequence (O00329 whole entry): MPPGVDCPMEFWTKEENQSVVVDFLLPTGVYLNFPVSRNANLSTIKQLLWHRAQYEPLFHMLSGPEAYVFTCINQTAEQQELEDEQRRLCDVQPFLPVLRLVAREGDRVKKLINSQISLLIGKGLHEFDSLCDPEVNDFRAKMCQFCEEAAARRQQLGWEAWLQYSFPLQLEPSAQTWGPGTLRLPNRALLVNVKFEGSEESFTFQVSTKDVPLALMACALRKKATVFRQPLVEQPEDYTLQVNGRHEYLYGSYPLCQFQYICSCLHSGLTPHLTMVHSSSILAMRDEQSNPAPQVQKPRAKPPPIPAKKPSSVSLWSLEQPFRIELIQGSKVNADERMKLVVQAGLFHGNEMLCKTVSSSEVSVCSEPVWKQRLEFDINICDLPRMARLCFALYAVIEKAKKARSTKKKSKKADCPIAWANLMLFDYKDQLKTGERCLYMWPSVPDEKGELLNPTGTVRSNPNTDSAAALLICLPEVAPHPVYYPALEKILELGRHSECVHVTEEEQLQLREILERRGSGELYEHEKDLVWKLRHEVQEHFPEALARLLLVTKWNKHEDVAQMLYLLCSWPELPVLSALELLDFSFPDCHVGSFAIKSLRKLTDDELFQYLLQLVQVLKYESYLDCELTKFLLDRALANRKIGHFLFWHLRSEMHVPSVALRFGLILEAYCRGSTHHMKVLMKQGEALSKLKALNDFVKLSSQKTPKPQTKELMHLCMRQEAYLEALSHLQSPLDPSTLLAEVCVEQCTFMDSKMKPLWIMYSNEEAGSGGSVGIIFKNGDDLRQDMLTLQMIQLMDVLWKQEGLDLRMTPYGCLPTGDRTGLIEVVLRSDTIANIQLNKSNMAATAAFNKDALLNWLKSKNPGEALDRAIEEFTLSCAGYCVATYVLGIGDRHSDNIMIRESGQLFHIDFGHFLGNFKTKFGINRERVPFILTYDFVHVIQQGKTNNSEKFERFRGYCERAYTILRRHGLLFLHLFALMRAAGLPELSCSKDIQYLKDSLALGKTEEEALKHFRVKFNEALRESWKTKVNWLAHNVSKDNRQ

[14] = biological target: Phosphatidylinositol 4,5-bisphosphate 3-kinase catalytic subunit gamma isoform (Homo sapiens, UniProt P48736); assay: Inhibition of PI3Kgamma (unknown origin) by ADP-Glo kinase assay

T1 sequence (Q9BTU6 whole entry): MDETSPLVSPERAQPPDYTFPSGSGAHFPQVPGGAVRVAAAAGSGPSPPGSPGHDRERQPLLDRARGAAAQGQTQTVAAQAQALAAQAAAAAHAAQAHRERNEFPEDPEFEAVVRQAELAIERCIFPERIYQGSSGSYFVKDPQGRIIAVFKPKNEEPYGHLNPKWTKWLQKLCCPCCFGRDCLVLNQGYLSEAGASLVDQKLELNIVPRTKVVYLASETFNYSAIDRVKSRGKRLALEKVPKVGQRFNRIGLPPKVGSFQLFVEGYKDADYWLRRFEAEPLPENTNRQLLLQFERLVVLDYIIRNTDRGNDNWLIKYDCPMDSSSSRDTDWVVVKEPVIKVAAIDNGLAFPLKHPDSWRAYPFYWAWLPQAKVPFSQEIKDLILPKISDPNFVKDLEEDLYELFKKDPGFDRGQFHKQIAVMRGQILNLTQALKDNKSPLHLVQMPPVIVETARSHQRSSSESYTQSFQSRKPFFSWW

Row | Activity [1] [%] | EC50 [3] [nM] | EC50 [4] [nM] | EC50 [5] [nM] | EC50 [6] [µM] | SMILES | CC50 at 72 h [2] [µM] | also measured
1 | 112 | < 10 | 138 | 954 | > 44.4 | CCc1cc(CNc2cc(Cl)nn3c(-c4ccc(OC)c(S(=O)(=O)n5cccn5)c4)c(C)nc23)ccn1 | 61.9 | –
2 | – | 62 | 1100 | 393 | 8.69 | CCc1cc(CNc2cc(Cl)nn3c(-c4cccc(S(=O)(=O)N(C)C)c4)c(C)nc23)ccn1 | 15.4 | –
3 | 106 | – | – | – | – | CCc1cc(CNc2cc(Cl)nn3c(-c4ccc(OC)c(S(=O)(=O)N(C)C)c4)c(C)nc23)ccn1 | – | –
4 | 104 | 716 | 1320 | 594 | > 44.4 | COc1ccc(-c2c(C)nc3c(NCCNC(C)=O)cc(Cl)nn23)cc1S(=O)(=O)N(C)C | 84.2 | –
5 | 88 | 655 | 38 | 1030 | > 44.4 | COc1ccc(-c2c(C)nc3c(NCCNC(C)=O)cc(Cl)nn23)cc1S(=O)(=O)N1CCOCC1 | 89.2 | –
6 | 105 | – | – | – | – | COc1ccc(-c2c(C)nc3c(NCCNC(C)=O)cc(Cl)nn23)cc1S(=O)(=O)NCCN(C)C | – | –
7 | 101 | 69 | 56 | 9200 | 26.5 | CCc1cc(CNc2cc(Cl)nn3c(-c4ccc(OC)c(S(=O)(=O)NC5CCC(N)CC5)c4)c(C)nc23)ccn1 (configuration not stated) | 5.76 | –
8 | 104 | < 10 | 476 | < 20 | 9.44 | CCc1cc(CNc2cc(Cl)nn3c(-c4ccc(OC)c(S(=O)(=O)NC(CC)CO)c4)c(C)nc23)ccn1 (configuration not stated) | 17.9 | –
9 | 83 | – | – | – | – | COc1ccc(-c2c(C)nc3c(NCCNC(C)=O)cc(Cl)nn23)cc1S(=O)(=O)n1cccn1 | – | –
10 | 112 | – | – | – | – | COc1ccc(-c2c(C)nc3c(NCCNC(C)=O)cc(Cl)nn23)cc1S(=O)(=O)NCCO | – | –
11 | 107 | – | – | – | – | COCCNS(=O)(=O)c1cc(-c2c(C)nc3c(NCCNC(C)=O)cc(Cl)nn23)ccc1OC | – | –
12 | 77 | 6760 | 1660 | 3420 | > 44.4 | CCC(CO)NS(=O)(=O)c1cc(-c2c(C)nc3c(NCCNC(C)=O)cc(Cl)nn23)ccc1OC (configuration not stated) | > 50 | –
13 | 102 | – | – | – | – | COc1ccc(-c2c(C)nc3c(NCCNC(C)=O)cc(Cl)nn23)cc1S(=O)(=O)NC1CCC(N)CC1 (configuration not stated) | – | –
14 | 88 | – | – | – | – | COc1ccc(-c2c(C)nc3c(NCCNC(C)=O)cc(Cl)nn23)cc1S(=O)(=O)N1CCC(O)CC1 | – | –
15 | 100 | < 10 | 151 | 350 | 8.51 | CCc1cc(CNc2cc(Cl)nn3c(-c4ccc(OC)c(S(=O)(=O)NCCN(C)C)c4)c(C)nc23)ccn1 | 5.56 | –
16 | 108 | – | – | – | – | COc1ccc(-c2c(C)nc3c(NCCNC(C)=O)cc(Cl)nn23)cc1S(=O)(=O)NC1CC1 | – | –
17 | 106 | 75 | 58 | 29 | 14.4 | CCc1cc(CNc2cc(Cl)nn3c(-c4ccc(OC)c(S(=O)(=O)NCCO)c4)c(C)nc23)ccn1 | 18.3 | IC50 [9]: > 10 µM; IC50 [8]: 13.4 µM; inhibition [10]: 50%; IC50 [11]: < 10 µM; IC50 [12]: < 10 µM; IC50 [13]: < 10 µM; IC50 [14]: < 10 µM

Further lines, the molecule ahead of its results:

Row | SMILES | Activity [1] [%] | EC50 [3] [nM] | EC50 [4] [nM] | EC50 [5] [nM] | EC50 [6] [µM] | CC50 at 72 h [2] [µM] | also measured
18 | CCc1cc(CNc2cc(Cl)nn3c(-c4ccc(OC)c(S(=O)(=O)N5CCCCC5)c4)c(C)nc23)ccn1 | 99 | – | – | – | – | – | –
19 | CCc1cc(CNc2cc(Cl)nn3c(-c4ccc(OC)c(S(=O)(=O)NC5CC5)c4)c(C)nc23)ccn1 | 114 | – | – | – | – | – | –
20 | CCc1cc(CNc2cc(Cl)nn3c(-c4ccc(OC)c(S(=O)(=O)N5CCC(O)CC5)c4)c(C)nc23)ccn1 | 109 | < 10 | 17 | 20 | 20.4 | 8.4 | –
21 | CCc1cc(CNc2cc(Cl)nn3c(-c4ccc(OC)c(S(=O)(=O)N5CCC(CO)CC5)c4)c(C)nc23)ccn1 | 115 | – | – | – | – | – | –
22 | CCc1cc(CNc2cc(Cl)nn3c(-c4ccc(OC)c(S(=O)(=O)N5CCOCC5)c4)c(C)nc23)ccn1 | 97 | < 10 | 83 | 1020 | 26 | 25.7 | –
23 | CCc1cc(CNc2cc(Cl)nn3c(-c4ccc(OC)cc4)c(C)nc23)ccn1 | 101 | – | – | – | – | – | –
24 | CC(=O)NCCNc1cc(Cl)nn2c(-c3cccc(S(=O)(=O)N(C)C)c3)c(C)nc12 | – | – | – | – | – | – | IC50 [7]: 54 nM; IC50 [8]: > 100 µM
25 | CCc1cc(CNc2cc(Cl)nn3c(-c4ccc(OC)c(S(=O)(=O)NCCOC)c4)c(C)nc23)ccn1 | 104 | < 10 | < 20 | 416 | 27.9 | 9.14 | –
26 | CNCCNS(=O)(=O)c1cc(-c2c(C)nc3c(NCCNC(C)=O)cc(Cl)nn23)ccc1OC | 73 | – | – | – | – | – | –
27 | C=CCNS(=O)(=O)c1cc(-c2c(C)nc3c(NCc4ccnc(CC)c4)cc(Cl)nn23)ccc1OC | 105 | < 10 | 12 | 667 | 20.1 | 6.85 | –
28 | COc1ccc(-c2c(C)nc3c(NCCNC(C)=O)cc(Cl)nn23)cc1S(=O)(=O)N1CCC(CO)CC1 | 85 | 5420 | 5000 | 1830 | > 44.4 | 131 | –
29 | COc1ccc(-c2c(C)nc3c(NCCNC(C)=O)cc(Cl)nn23)cc1S(=O)(=O)N1CCCCC1 | 60 | – | – | – | – | – | –
30 | C=CCNS(=O)(=O)c1cc(-c2c(C)nc3c(NCCNC(C)=O)cc(Cl)nn23)ccc1OC | 93 | 990 | 5310 | 2680 | 35.9 | 445 | –
